Test results published in ChEMBL document CHEMBL1201862, “PubChem BioAssay data set” (2004).
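Following 48 hours of exposure in 96-well plates, responses at five concentrations were used to interpolate endpoints linearly. At the GI50, growth is halved.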 The source made the active and inactive calls. Cut-off read from the data, not from the text of the source: active = GI50 up to about 1.1 µM and inactive = higher.

Experiments:
Assay in all cases: NCI-60 cell line screen, 48 h
[1] = system: MDA-N
[2] = system: OVCAR-8
[3] = system: UACC-62
[4] = system: DU-145
[5] = system: UO-31
[6] = system: SW-620
[7] = system: SNB-19
[8] = system: U-251
[9] = system: OVCAR-3
[10] = system: HT-29
[11] = system: NCI/ADR-RES
[12] = system: CAKI-1
[13] = system: OVCAR-5
[14] = system: RPMI-8226
[15] = system: IGROV-1
[16] = system: SF-295
[17] = system: TK-10
[18] = system: UACC-257
[19] = system: OVCAR-4
[20] = system: HCC 2998

## O=C(c1ccc(Cl)cc1)N(C(=O)N1CCCCC1)c1ccccc1
[1]
  GI50: > 100 µM (inactive)
[2]
  GI50: > 100 µM (inactive)
[3]
  GI50: > 100 µM (inactive)
[4]
  GI50: > 100 µM (inactive)
[5]
  GI50: 34.7 µM (inactive)
[6]
  GI50: > 100 µM (inactive)
[7]
  GI50: > 100 µM (inactive)
[8]
  GI50: > 100 µM (inactive)
[9]
  GI50: > 100 µM (inactive)
[10]
  GI50: > 100 µM (inactive)
[11]
  GI50: 66.5 µM (inactive)
[12]
  GI50: > 100 µM (inactive)
[13]
  GI50: > 100 µM (inactive)
[14]
  GI50: 22.6 µM (inactive)
[15]
  GI50: 56.4 µM (inactive)

## O=C1N2CCc3c([nH]c4ccccc34)C23CC2CCCC12S3 (stereo not given)
[16]
  GI50: 20.3 µM (inactive)
[1]
  GI50: 27.9 µM (inactive)
[2]
  GI50: 28.8 µM (inactive)
[3]
  GI50: 36.7 µM (inactive)
[4]
  GI50: 39.4 µM (inactive)
[5]
  GI50: 32 µM (inactive)
[6]
  GI50: > 50 µM (inactive)
[7]
  GI50: > 50 µM (inactive)
[17]
  GI50: > 50 µM (inactive)
[8]
  GI50: > 50 µM (inactive)
[9]
  GI50: 39.4 µM (inactive)
[10]
  GI50: 18.4 µM (inactive)
[11]
  GI50: 10.7 µM (inactive)
[12]
  GI50: > 50 µM (inactive)
[13]
  GI50: > 50 µM (inactive)
[18]
  GI50: 18.2 µM (inactive)
[19]
  GI50: 41 µM (inactive)
[14]
  GI50: 27.4 µM (inactive)
[15]
  GI50: 24.8 µM (inactive)

## Cc1ccc2c(=O)cc(Cc3cccs3)[nH]c2n1
[16]
  GI50: > 100 µM (inactive)
[2]
  GI50: > 100 µM (inactive)
[3]
  GI50: > 100 µM (inactive)
[4]
  GI50: > 100 µM (inactive)
[5]
  GI50: > 100 µM (inactive)
[6]
  GI50: > 100 µM (inactive)
[7]
  GI50: > 100 µM (inactive)
[17]
  GI50: > 100 µM (inactive)
[8]
  GI50: > 100 µM (inactive)
[9]
  GI50: > 100 µM (inactive)
[10]
  GI50: > 100 µM (inactive)
[11]
  GI50: > 100 µM (inactive)
[12]
  GI50: > 100 µM (inactive)
[13]
  GI50: > 100 µM (inactive)
[18]
  GI50: > 100 µM (inactive)
[19]
  GI50: > 100 µM (inactive)
[14]
  GI50: > 100 µM (inactive)
[15]
  GI50: > 100 µM (inactive)

## C=CCN1C[C@@H](C)N([C@@H](c2ccccc2)c2ccc(C(=O)N(CC)CC)cc2)C[C@@H]1C
[16]
  GI50: > 100 µM (inactive)
[1]
  GI50: > 100 µM (inactive)
[2]
  GI50: > 100 µM (inactive)
[3]
  GI50: > 100 µM (inactive)
[4]
  GI50: > 100 µM (inactive)
[5]
  GI50: > 100 µM (inactive)
[6]
  GI50: > 100 µM (inactive)
[7]
  GI50: > 100 µM (inactive)
[8]
  GI50: > 100 µM (inactive)
[9]
  GI50: > 100 µM (inactive)
[10]
  GI50: > 100 µM (inactive)
[11]
  GI50: > 100 µM (inactive)
[12]
  GI50: > 100 µM (inactive)
[13]
  GI50: > 100 µM (inactive)
[19]
  GI50: > 100 µM (inactive)
[14]
  GI50: 95.5 µM (inactive)
[15]
  GI50: > 100 µM (inactive)

## OC(CN(CCCl)CCCl)C(O)C(O)C(O)CN(CCCl)CCCl (stereo not given)
[2]
  GI50: > 100 µM (inactive)
[3]
  GI50: 12.4 µM (inactive)
[4]
  GI50: 71.9 µM (inactive)
[5]
  GI50: 22.1 µM (inactive)
[6]
  GI50: > 100 µM (inactive)
[20]
  GI50: > 100 µM (inactive)
[7]
  GI50: > 100 µM (inactive)
[17]
  GI50: > 100 µM (inactive)
[8]
  GI50: 37.4 µM (inactive)
[9]
  GI50: > 100 µM (inactive)
[10]
  GI50: > 100 µM (inactive)
[11]
  GI50: 78.9 µM (inactive)
[12]
  GI50: > 100 µM (inactive)
[13]
  GI50: > 100 µM (inactive)
[18]
  GI50: > 100 µM (inactive)
[14]
  GI50: > 100 µM (inactive)
[15]
  GI50: > 100 µM (inactive)

## CN(c1ccccc1)S(=O)(=O)c1ccc([N+](=O)[O-])cc1
[16]
  GI50: > 100 µM (inactive)
[1]
  GI50: > 100 µM (inactive)
[2]
  GI50: > 100 µM (inactive)
[4]
  GI50: > 100 µM (inactive)
[5]
  GI50: > 100 µM (inactive)
[6]
  GI50: > 100 µM (inactive)
[7]
  GI50: > 100 µM (inactive)
[17]
  GI50: > 100 µM (inactive)
[8]
  GI50: > 100 µM (inactive)
[9]
  GI50: > 100 µM (inactive)
[10]
  GI50: 69.5 µM (inactive)
[11]
  GI50: 95.1 µM (inactive)
[12]
  GI50: > 100 µM (inactive)
[13]
  GI50: > 100 µM (inactive)
[18]
  GI50: 92.5 µM (inactive)
[19]
  GI50: > 100 µM (inactive)
[14]
  GI50: 61.5 µM (inactive)

## CC(=O)Nc1nnc(S(C)(=O)=O)s1
[16]
  GI50: > 100 µM (inactive)
[1]
  GI50: > 100 µM (inactive)
[2]
  GI50: > 100 µM (inactive)
[4]
  GI50: > 100 µM (inactive)
[5]
  GI50: > 100 µM (inactive)
[6]
  GI50: > 100 µM (inactive)
[7]
  GI50: > 100 µM (inactive)
[17]
  GI50: > 100 µM (inactive)
[8]
  GI50: > 100 µM (inactive)
[9]
  GI50: > 100 µM (inactive)
[10]
  GI50: > 100 µM (inactive)
[11]
  GI50: > 100 µM (inactive)
[13]
  GI50: > 100 µM (inactive)
[18]
  GI50: > 100 µM (inactive)
[14]
  GI50: > 100 µM (inactive)

## CCOC(=O)C(=CNC(=S)c1ccncc1)C(=O)OCC
[16]
  GI50: > 100 µM (inactive)
[1]
  GI50: > 100 µM (inactive)
[3]
  GI50: > 100 µM (inactive)
[4]
  GI50: > 100 µM (inactive)
[5]
  GI50: > 100 µM (inactive)
[6]
  GI50: > 100 µM (inactive)
[20]
  GI50: > 100 µM (inactive)
[7]
  GI50: > 100 µM (inactive)
[17]
  GI50: > 100 µM (inactive)
[8]
  GI50: > 100 µM (inactive)
[9]
  GI50: 76.2 µM (inactive)
[12]
  GI50: > 100 µM (inactive)
[13]
  GI50: > 100 µM (inactive)
[18]
  GI50: > 100 µM (inactive)
[19]
  GI50: > 100 µM (inactive)
[14]
  GI50: > 100 µM (inactive)
[15]
  GI50: > 100 µM (inactive)

## COc1ccc(NC(=S)NN=C(C)c2cccc(C(C)=NNC(=S)Nc3ccc(OC)cc3)n2)cc1
[16]
  GI50: 11.2 µM (inactive)
[2]
  GI50: 9.51 µM (inactive)
[3]
  GI50: > 100 µM (inactive)
[4]
  GI50: > 100 µM (inactive)
[5]
  GI50: 6.65 µM (inactive)
[6]
  GI50: 64.7 µM (inactive)
[20]
  GI50: 37.7 µM (inactive)
[7]
  GI50: > 100 µM (inactive)
[17]
  GI50: 58.2 µM (inactive)
[8]
  GI50: 24.5 µM (inactive)
[9]
  GI50: 13.9 µM (inactive)
[10]
  GI50: 28.2 µM (inactive)
[11]
  GI50: 8.59 µM (inactive)
[12]
  GI50: 11.4 µM (inactive)
[13]
  GI50: > 100 µM (inactive)
[18]
  GI50: > 100 µM (inactive)
[19]
  GI50: 7.13 µM (inactive)
[14]
  GI50: > 100 µM (inactive)
[15]
  GI50: 0.857 µM (active)

## COc1ccc(NC(=O)CC(=O)N2N=C(N(c3ccccc3)c3ccccc3)CC2c2ccccc2)cc1 (stereo not given)
[16]
  GI50: > 100 µM (inactive)
[2]
  GI50: > 100 µM (inactive)
[3]
  GI50: > 100 µM (inactive)
[4]
  GI50: > 100 µM (inactive)
[5]
  GI50: > 100 µM (inactive)
[6]
  GI50: > 100 µM (inactive)
[20]
  GI50: > 100 µM (inactive)
[7]
  GI50: > 100 µM (inactive)
[17]
  GI50: > 100 µM (inactive)
[8]
  GI50: > 100 µM (inactive)
[9]
  GI50: > 100 µM (inactive)
[10]
  GI50: > 100 µM (inactive)
[11]
  GI50: > 100 µM (inactive)
[12]
  GI50: > 100 µM (inactive)
[13]
  GI50: > 100 µM (inactive)
[18]
  GI50: > 100 µM (inactive)
[19]
  GI50: > 100 µM (inactive)
[14]
  GI50: > 100 µM (inactive)
[15]
  GI50: > 100 µM (inactive)

## CC(=O)NC(C)(C)C1CC=C(C)/C(=N\O)C1 (stereo not given)
[16]
  GI50: > 100 µM (inactive)
[1]
  GI50: > 100 µM (inactive)
[2]
  GI50: > 100 µM (inactive)
[3]
  GI50: > 100 µM (inactive)
[4]
  GI50: > 100 µM (inactive)
[5]
  GI50: > 100 µM (inactive)
[6]
  GI50: > 100 µM (inactive)
[20]
  GI50: > 100 µM (inactive)
[7]
  GI50: > 100 µM (inactive)
[17]
  GI50: > 100 µM (inactive)
[8]
  GI50: > 100 µM (inactive)
[9]
  GI50: > 100 µM (inactive)
[10]
  GI50: > 100 µM (inactive)
[13]
  GI50: > 100 µM (inactive)
[18]
  GI50: > 100 µM (inactive)
[19]
  GI50: > 100 µM (inactive)
[15]
  GI50: > 100 µM (inactive)
